This is an account of results in US20250025443A1, “COMPOUNDS AND METHODS FOR TREATING CORONA VIRUSES” (CLEAR CREEK BIO, INC., priority 2021, published 2025).

Where two headings read alike, the source gives them in different places.

In the assay the target is SARS-CoV-2 Papain-Like Protease (PLpro) (Severe acute respiratory syndrome coronavirus 2 (2019-nCoV) (SARS-CoV-2), UniProt P0DTD1). The assay is described as follows: biochemical. The conditions noted are these: read-out: PLpro IC50.
Setting [1] is: SARS-CoV-2 PLpro enzymatic fluorescence assay.
Where [2] appears, read: PLpro enzymatic fluorescence assay, class symbols.
The mark [3] stands for this setting: PLpro 6.25 nM, substrate 25 μM, 60 min at 25° C., for more potent compounds PLpro 1 nM, 120 min.

Regarding “2-Methyl-5-((2-methylazetidin-2-yl)methoxy)-N-(1-(naphthalen-1-yl)cyclopropyl)benzamide [Compound 394]”, the IC50 under setting [1] was less than 0.1 µM.

Turning to “2-Methyl-N-(1-(naphthalen-1-yl)cyclopropyl)-5-(piperidin-2-ylmethoxy)benzamide [Compound 339]”, the IC50 under setting [1] was less than 0.1 µM.

Take “5-(2-Hydroxyethoxy)-2-methyl-N-(1-(naphthalen-1-yl)cyclopropyl)benzamide [Compound 393]”: the IC50 under setting [1] was in the range of 0.1 to 1 µM.

In the case of “5-((1-(2-Hydroxyethyl)azetidin-2-yl)methoxy)-2-methyl-N-(1-(naphthalen-1-yl)cyclopropyl)benzamide [Compound 341]”, under setting [1], the IC50 was less than 0.1 µM.

In the case of `Cc1ccc(O[C@@H]2CC[C@@H]2N)cc1C(=O)NC1(c2cccc3ccccc23)CC1` (racemic) [Compound 406, rac-5-((1S,2R)-2-Aminocyclobutoxy)-2-methyl-N-(1-(naphthalen-1-yl)cyclopropyl)benzamide], the IC50 under setting [1] is less than 0.1 µM.

Consider `Cc1ccc(OC[C@H]2C[C@@H](O)CN2)cc1C(=O)NC1(c2cccc3ccccc23)CC1` (racemic) [Compound 416, rac-5-(((2R,4R)-4-Hydroxypyrrolidin-2-yl)methoxy)-2-methyl-N-(1-(naphthalen-1-yl)cyclopropyl)benzamide], for which the IC50 under setting [1] was less than 0.1 µM.

Consider `C=Cc1cc(C2(NC(=O)c3cc(O[C@@H](C)[C@@H]4CCN4C)ccc3C)CC2)c2cccnc2c1` (relative stereo) [Compound 757, 2-Methyl-5-((S)-1-((S)-1-methylazetidin-2-yl)ethoxy)-N-(1-(7-vinylquinolin-5-yl)cyclopropyl)benzamide], for which the IC50 under setting [1] was less than 0.1 µM.

Regarding `Cc1ccc(O[C@@H]2CCCC[C@H]2N)cc1CNC1(c2cccc3ccccc23)CC1` (single isomer, unassigned) [Compound 429], the IC50 under setting [2] lay within 0.1 to 1 µM.

`Cc1ccc(OC[C@H]2C[C@@H](F)CN2)cc1C(=O)NC1(c2cccc3ccccc23)CC1` (single isomer, unassigned) [Compound 438]: the IC50 under setting [1] is less than 0.1 µM.

On to `Cc1ccc(OC[C@H]2C[C@H](O)CN2C)cc1C(=O)NC1(c2cccc3ccccc23)CC1` (single isomer, unassigned) [Compound 439], for which the IC50 under setting [1] was less than 0.1 µM.

Consider `Cc1ccc(OC[C@H]2C[C@@H](O)CN2C)cc1C(=O)NC1(c2cccc3ccccc23)CC1` (single isomer, unassigned) [Compound 440], for which the IC50 under setting [1] was less than 0.1 µM.

Consider `Cc1ccc(OC[C@H]2C[C@H](F)CN2C)cc1C(=O)NC1(c2cccc3ccccc23)CC1` (single isomer, unassigned) [Compound 441], for which the IC50 under setting [1] is less than 0.1 µM.

For `Cc1ccc(OC[C@H]2C[C@H](F)CN2)cc1C(=O)NC1(c2cccc3ccccc23)CC1` (single isomer, unassigned) [Compound 442], the IC50 under setting [1] was less than 0.1 µM.

In the case of `Cc1ccc(OC[C@@H]2CCN2C)cc1C(=O)NC1(c2cc(-c3ccco3)cc3ncccc23)CC1` (stereo in doubt) [Compound 604, N-(1-(7-(Furan-2-yl)quinolin-5-yl)cyclopropyl)-2-methyl-5-((1-methylazetidin-2-yl)methoxy)benzamide], the IC50 under setting [2] was less than 0.1 µM.

As for `Cc1ccc(NS(C)(=O)=O)cc1C(=O)N[C@H](C)c1cccc2ccccc12` [Compound 100, (R)-2-Methyl-5-(methylsulfonamido)-N-(1-(naphthalen-1-yl)ethyl)benzamide], the IC50 under setting [1] is more than 5 µM.

Regarding `Cc1ccc(O)cc1C(=O)N[C@H](C)c1cccc2ccccc12` [Compound 101, (R)-5-Hydroxy-2-methyl-N-(1-(naphthalen-1-yl)ethyl)benzamide], the IC50 under setting [3] was 1 to 5 µM.

`Cc1cc2nc[nH]c2cc1C(=O)N[C@H](C)c1cccc2ccccc12` [Compound 102, (R)-5-Methyl-N-(1-(naphthalen-1-yl)ethyl)-1H-benzo[d]imidazole-6-carboxamide]: the IC50 under setting [1] is 1 to 5 µM.

Take `Cc1ccc([N+](=O)[O-])cc1C(=O)N[C@H](C)c1cccc2ccccc12` [Compound 104, (R)-2-Methyl-N-(1-(naphthalen-1-yl)ethyl)-5-nitrobenzamide]: the IC50 under setting [2] is more than 5 µM.

Turning to `Cc1ccc([N+](=O)[O-])cc1C(=O)NC(c1cccc2ccccc12)C1CCOCC1` (stereo not drawn) [Compound 105, 2-Methyl-N-(naphthalen-1-yl(tetrahydro-2H-pyran-4-yl)methyl)-5-nitrobenzamide], under setting [1], the IC50 is more than 5 µM.

With `Cc1ccc(N)cc1CN[C@H](C)c1cccc2ccccc12` [Compound 106, (R)-4-Methyl-3-(((1-(naphthalen-1-yl)ethyl)amino)methyl) aniline], the IC50 under setting [1] was more than 5 µM.

Consider `Cc1ccc(Nc2nccs2)cc1C(=O)N[C@H](C)c1cccc2ccccc12` [Compound 107, (R)-2-Methyl-N-(1-(naphthalen-1-yl)ethyl)-5-(thiazol-2-ylamino)benzamide], for which, under setting [1], the IC50 was more than 5 µM.

With `COCC(NC(=O)c1cc([N+](=O)[O-])ccc1C)c1cccc2ccccc12` (stereo not drawn) [Compound 108, N-(2-Methoxy-1-(naphthalen-1-yl)ethyl)-2-methyl-5-nitrobenzamide], under setting [1], the IC50 was more than 5 µM.

In the case of `Cc1ccc(N)cc1C(=O)NC(c1cccc2ccccc12)C1CCOCC1` (stereo not drawn) [Compound 109, 5-Amino-2-methyl-N-(naphthalen-1-yl(tetrahydro-2H-pyran-4-yl)methyl)benzamide], the IC50 under setting [1] is more than 5 µM.

On to `Cc1ccc([N+](=O)[O-])cc1CNC(c1cccc2ccccc12)C1COC1` (stereo not drawn) [Compound 110], for which the IC50 under setting [2] is more than 5 µM.

Regarding `Cc1ccc(NC2CNC2)cc1C(=O)N1Cc2ccc(-c3ccc(CN4CCCC4)s3)cc2C1` [Compound 111, (5-(Azetidin-3-ylamino)-2-methylphenyl)(5-(5-(pyrrolidin-1-ylmethyl)thiophen-2-yl)isoindolin-2-yl)methanone], the IC50 under setting [1] was more than 5 µM.

Consider `COCCC(NCc1cc([N+](=O)[O-])ccc1C)c1cccc2ccccc12` (stereo not drawn) [Compound 113], for which the IC50 under setting [2] was more than 5 µM.

As for `COc1ncccc1Nc1ccc(C)c(C(=O)N[C@H](C)c2cccc3ccccc23)c1` [Compound 115, (R)-5-((2-Methoxypyridin-3-yl)amino)-2-methyl-N-(1-(naphthalen-1-yl)ethyl)benzamide], the IC50 under setting [1] lay in the range of 1 to 5 µM.

For `Cc1ccc(NC2CNC2)cc1C(=O)NCc1ccc(-c2ccc(CN3CCCC3)s2)cc1` [Compound 116, 5-(Azetidin-3-ylamino)-2-methyl-N-(4-(5-(pyrrolidin-1-ylmethyl)thiophen-2-yl)benzyl)benzamide], the IC50 under setting [1] was more than 5 µM.

For the compound `COCC(NC(=O)c1cc(N)ccc1C)c1cccc2ccccc12` (stereo not drawn) [Compound 118, 5-Amino-N-(2-methoxy-1-(naphthalen-1-yl)ethyl)-2-methylbenzamide], the IC50 under setting [1] is more than 5 µM.

As for `Cc1ccc(Nc2ccc[nH]c2=O)cc1C(=O)N[C@H](C)c1cccc2ccccc12` [Compound 119, (R)-2-Methyl-N-(1-(naphthalen-1-yl)ethyl)-5-((2-oxo-1,2-dihydropyridin-3-yl)amino)benzamide], the IC50 under setting [1] fell in the range of 1 to 5 µM.

Regarding `Cc1ccc(NC2CNC2)cc1C(=O)NCc1cccc(-c2ccc(CN3CCCC3)s2)c1` [Compound 120, 5-(Azetidin-3-ylamino)-2-methyl-N-(3-(5-(pyrrolidin-1-ylmethyl)thiophen-2-yl)benzyl)benzamide], under setting [1], the IC50 is more than 5 µM.

With `Cc1ccc(Nc2cn[nH]c2)cc1C(=O)N[C@H](C)c1cccc2ccccc12` [Compound 121, (R)-5-((1H-Pyrazol-4-yl)amino)-2-methyl-N-(1-(naphthalen-1-yl)ethyl)benzamide], the IC50 under setting [1] fell in the range of 1 to 5 µM.

Consider `Cc1ccc([N+](=O)[O-])cc1CNC(c1cccc2ccccc12)C1CCOC1` (stereo not drawn) [Compound 123], for which, under setting [2], the IC50 is more than 5 µM.

In the case of `C[C@@H](NC(=O)c1ccc2cn[nH]c2c1)c1cccc2ccccc12` [Compound 124, (R)-N-(1-(naphthalen-1-yl)ethyl)-1H-indazole-6-carboxamide], the IC50 under setting [1] was more than 5 µM.

Consider `C[C@@H](NC(=O)c1ccc2nc[nH]c2c1)c1cccc2ccccc12` [Compound 125, (R)-N-(1-(Naphthalen-1-yl)ethyl)-1H-benzo[d]imidazole-6-carboxamide], for which, under setting [1], the IC50 is more than 5 µM.

For `Cc1cc2nc[nH]c2cc1C(=O)N[C@H](C)c1cccc(-c2ccc(CN3CCCC3)s2)c1` [Compound 126, (R)-5-Methyl-N-(1-(3-(5-(pyrrolidin-1-ylmethyl)thiophen-2-yl)phenyl)ethyl)-1H-benzo[d]imidazole-6-carboxamide], under setting [1], the IC50 lay in the range of 1 to 5 µM.

For `CC(c1cccc2ccccc12)N1CCc2ccc([N+](=O)[O-])cc2C1` (stereo not drawn) [Compound 127, 2-(1-(Naphthalen-1-yl)ethyl)-7-nitro-1,2,3,4-tetrahydroisoquinoline], the IC50 under setting [2] was more than 5 µM.

For the compound `Cc1cc2nc(CN)[nH]c2cc1C(=O)N[C@H](C)c1cccc2ccccc12` [Compound 128, (R)-2-(Aminomethyl)-5-methyl-N-(1-(naphthalen-1-yl)ethyl)-1H-benzo[d]imidazole-6-carboxamide], the IC50 under setting [1] lay in the range of 0.1 to 1 µM.

For the compound `Cc1cc2nc(C3CNC3)[nH]c2cc1C(=O)N[C@H](C)c1cccc2ccccc12` [Compound 131, (R)-2-(Azetidin-3-yl)-5-methyl-N-(1-(naphthalen-1-yl)ethyl)-1H-benzo[d]imidazole-6-carboxamide], the half-maximal inhibitory concentration (IC50) under setting [1] was in the range of 1 to 5 µM.

As for `COc1ccc(Cl)c(C(=O)N[C@H](C)c2cccc3ccccc23)c1` [Compound 132, (R)-2-Chloro-5-methoxy-N-(1-(naphthalen-1-yl)ethyl)benzamide], the IC50 under setting [3] is more than 5 µM.

Turning to `Cc1cc2nc[nH]c2cc1C(=O)N[C@H](C)c1cccc(-c2ccc(CN[C@H]3CC[C@@H](O)C3)s2)c1` [Compound 134, N-((R)-1-(3-(5-((((1S,3R)-3-hydroxycyclopentyl)amino)methyl)thiophen-2-yl)phenyl)ethyl)-5-methyl-1H-benzo[d]imidazole-6-carboxamide], the IC50 under setting [1] was in the range of 0.1 to 1 µM.

Consider `CC(c1cccc2ccccc12)N1CCc2ccc(N)cc2C1` (stereo not drawn) [Compound 135, 2-(1-(Naphthalen-1-yl)ethyl)-1,2,3,4-tetrahydroisoquinolin-7-amine], for which the IC50 under setting [1] was 1 to 5 µM.
